For assay [1], the system named is murine macrophage-like cell line J774.A1. Put plainly: Inhibition of cholesterol esterification in mammalian cells (macrophage assay). The class given is cell-based. The essentials:
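Murine J774.A1 macrophages at 37 °C received 34 μg acetylated human LDL in 10% FBS-DMEM from 24 h, compound in DMSO at 41 h, then a 0.1 mM 14C-oleic acid–BSA pulse from 43 to 45 h. Labelled cholesteryl ester was separated by TLC, counted and normalised to Lowry protein.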

Assay [2] has as its system hypercholesterolemic (cholesterol-fed) hamsters. The assay can be described thus: Antihypercholesterolemic activity in cholesterol-fed hamsters. To be noted: two weeks; for Serum Cholesterol, Treated: mean ± SEM, n = 9-10; for Serum Cholesterol Decrease: vs control. The class given is in vivo, hamster. The method, then:
C. Assay of Antihypercholesterolemic Activity in Cholesterol-fed Hamsters
Inhibition of ACAT activity in the gut reduces the absorption of cholesterol in cholesterol-fed animals. Hamsters weighing approximately 100 g, were maintained on a diet supplemented with 0.8% cholesterol. The treatment group received 1-100 mg/kg/day, p.o., of the test compound dissolved in 500 μl of corn oil for a period of two weeks. The control group were pair-fed to the treatment group and were dosed with 500 μl of the corn oil vehicle. At sacrifice, the hamsters were anesthetized with CO2 and exsanguinated via cardiac puncture. Total serum cholesterol was determined on a Du Pont aca® IV. The data were expressed in terms of mg cholesterol per 100 ml of serum (mg %).

Assay [3] deals with T1, Acyl-CoA: Cholesterol Acyltransferase (ACAT) (Rattus norvegicus, UniProt Q7TQM4).
T1 construct: Microsomes were obtained by differential centrifugation; from tissue; host or cells: liver microsomes of male Sprague Dawley rats
T1 sequence (Q7TQM4 1-524): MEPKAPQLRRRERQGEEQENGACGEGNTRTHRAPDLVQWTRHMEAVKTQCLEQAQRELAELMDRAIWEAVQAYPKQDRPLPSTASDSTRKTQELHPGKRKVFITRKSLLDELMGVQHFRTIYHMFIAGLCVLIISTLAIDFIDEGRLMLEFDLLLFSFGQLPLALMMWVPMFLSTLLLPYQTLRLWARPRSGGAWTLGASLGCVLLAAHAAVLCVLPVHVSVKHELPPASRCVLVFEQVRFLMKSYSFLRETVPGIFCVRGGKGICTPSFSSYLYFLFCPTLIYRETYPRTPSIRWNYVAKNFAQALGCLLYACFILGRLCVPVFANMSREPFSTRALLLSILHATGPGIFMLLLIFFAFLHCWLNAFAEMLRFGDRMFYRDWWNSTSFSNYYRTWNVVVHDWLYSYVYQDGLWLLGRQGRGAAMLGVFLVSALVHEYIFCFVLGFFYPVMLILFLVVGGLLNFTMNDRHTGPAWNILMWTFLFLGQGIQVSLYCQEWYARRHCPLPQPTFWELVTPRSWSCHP
The assay can be described thus: Inhibition of acyl-CoA: cholesterol acyltransferase (ACAT) in hepatic microsomes (in vitro). The assay is classed as biochemical, rat (male Sprague Dawley). The essentials:
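Liver microsomes from fasted male Sprague Dawley rats (200 μg protein) were preincubated with compound in DMSO for 15 min at 37 °C in 0.1M phosphate, pH 7.4, with 1 mM glutathione. Reaction started with 75 μM 14C-oleoyl-CoA and stopped after 10 min; cholesteryl ester isolated by TLC and counted by scintillation.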

[4] abbreviates: J774.A1 macrophages loaded with ac-LDL, 14C-oleic acid, read-out: Cholesterol Esterification IC50.
The mark [5] stands for this setting: rat hepatic microsomes, 75 μM 14C-oleoyl-CoA, pH 7.4, 37° C., read-out: In Vitro ACAT IC50.
The mark [6] stands for this setting: In Vitro ACAT IC50, rat hepatic microsomes, 75 μM 14C-oleoyl-CoA, pH 7.4, 37° C.

For orientation: IC50 means the concentration at which inhibition is half-maximal.

Structures can show the parent of a compound that is named as a salt. Where two headings read alike, the source gives them in different places.

Take `CCCCCCCN(CCCCCSc1nc(-c2ccccc2)c(-c2ccccc2)[nH]1)C(=O)Nc1ccc(F)cc1F` [Example 1, N'-(2,4-difluorophenyl)-N-[5-(4,5-diphenyl-1H-imidazol-2-ylthio)pentyl]-N-heptylurea]: in assay [1] (setting [4]), the IC50 was 1000 nM. Further, the “Serum Cholesterol, Treated” value is 295 ± 12 mg % in assay [2] (1 mg/kg/day p.o., control 400 ± 25); 279 ± 16 mg % in assay [2] (3 mg/kg/day p.o., control 381 ± 17); 201 ± 12 mg % in assay [2] (10 mg/kg/day p.o., control 371 ± 7); 197 ± 11 mg % in assay [2] (30 mg/kg/day p.o., control 368 ± 15); 62 ± 8 mg % in assay [2] (100 mg/kg/day p.o., control 400 ± 17). Further, the “Serum Cholesterol Decrease” value is given as 26% in assay [2] (1 mg/kg/day p.o.); 27% in assay [2] (3 mg/kg/day p.o.); 46% in assay [2] (10 mg/kg/day p.o.); 46% in assay [2] (30 mg/kg/day p.o.); 60% in assay [2] (100 mg/kg/day p.o.).
For the compound `CCCCCCCN(CCCCCSc1nc(-c2ccccc2)c(-c2ccccc2)[nH]1)C(=O)OCc1ccccc1` [Example 408, (Phenylmethyl) [5-(4,5-diphenyl-1H-imidazol-2-ylthio)pentyl]heptylcarbamate], the IC50 in assay [3] (setting [5]) is 9 nM; in assay [1] (setting [4]), 1300 nM.
On to `CCCCCCCN(CCCCCSc1nc(-c2ccc(OC)cc2)c(-c2ccc(OC)cc2)[nH]1)C(=O)Oc1ccccc1` [Example 410], for which the IC50 amounted to 640 nM in assay [3] (setting [6]) and 30 nM in assay [1] (setting [4]).
Consider `CCCCCCCN(CCCCCSc1nc(C(C)C)c(C(C)C)[nH]1)C(=O)Oc1ccccc1` [Example 411, phenyl N-[5-(4,5-bis(1-methylethyl)-1H-imidazol-2-ylthio]pentyl]-N-heptylcarbamat], for which the values for the IC50 in assay [3] (setting [6]) and in assay [1] (setting [4]) were 310 nM and 500 nM, respectively.
For `CCCCCCCN(CCCCCSc1nc(-c2ccc(OC)cc2)c(-c2ccc(OC)cc2)[nH]1)C(=O)OCC(C)C` [Example 457], the IC50 in assay [3] (setting [5]) was 834 nM; in assay [1] (setting [4]), 100 nM.
`CCCCCCCNCCCCCSc1nc(-c2ccccc2)c(-c2ccccc2)[nH]1` [N-[5(4,5-diphenyl-1H-imidazol-2-ylthio)pentyl]-1-heptanaminehydrochloride]: the IC50 in assay [3] (intermediate, read-out: IC50 in the in vitro ACAT assay) stood at 100 nM; in assay [1] (intermediate, read-out: IC50 in the macrophage assay), 6000 nM.
